Source: patent US10975082B2, “Inhibitor of FLT3 kinase and use thereof” (PRECEDO PHARMACEUTICALS CO., LTD, priority 2016, dated 2021)

How the values were obtained:
[1] = test system: MV-4-11; test: Cancer cell proliferation, Cell Titer-Glo, GI50; assay type: cell-based; settings: Homo sapiens, MV4-11; MV-4-11, 72 hours
Experimental: (§1) Compounds of the invention were evaluated for their inhibitory effects on proliferation of cancer cells as well as the selectivity thereof by testing their effects on growth of cancer cells (Table 2).
(§2) In this example the following cells were selected: human acute myeloid leukemia cells MV-4-11 (expressing FLT3[ITD] mutant gene), human acute myeloid leukemia cells MOLM-13 (expressing FLT3[ITD] mutant gene and wild-type FLT3 gene), human acute myeloid leukemia cells MOLM-14 (expressing FLT3[ITD] mutant gene and wild-type FLT3 gene), human acute myeloid leukemia cells OCI-AML3 (expressing FLT3[A680V] mutant gene), human acute myeloid leukemia cells U937 (expressing wild-type FLT3 gene), and mouse pro-B cells BaF3, and the above cells were purchased from ATCC.
(§3) Then the number of viable cells was determined by quantification of ATP in living cells using Cell Titer-Glo® (Promega, the USA) Luminescent Cell Viability Assay kit and thereby GI50 was calculated.

[2] = test system: U937; test: Cancer cell proliferation, Cell Titer-Glo, GI50; assay type: cell-based; settings: Homo sapiens, U-937; U937, 72 hours
Experimental: as §1, §2, §3

[3] = test system: MOLM-14; test: Cancer cell proliferation, Cell Titer-Glo, GI50; assay type: cell-based; settings: Homo sapiens; MOLM-14, 72 hours
Experimental: as §1, §2, §3

[4] = test system: BaF3; test: Cell proliferation, Cell Titer-Glo, GI50; assay type: cell-based; settings: Mus musculus; BaF3, 72 hours
Experimental: as §1, §2, §3

[5] = test system: BaF3-TEL-cKIT; test: Cell proliferation, Cell Titer-Glo, GI50; assay type: cell-based; settings: Mus musculus, 72 hours
Experimental: as §1
(§4) Mouse BaF3-FLT3[ITD] (stably expressing FLT3[ITD] mutant activated kinase), mouse tel-BaF3-FLT3-D835Y (stably expressing FLT3[D835Y]mutant activated kinase), mouse tel-BaF3-BMX (stably expressing BMX kinase), mouse tel-FLT3-BaF3 (stably expressing FLT3 kinase), mouse BaF3-FLT3-ITD-D835Y (stably expressing FLT3[ITD+D835Y]mutant activated kinase), mouse BaF3-FLT3-ITD-F691L (stably expressing FLT3[ITD+F691L]mutant activated kinase), mouse tel-cKIT-BaF3 (stably expressing cKIT kinase), mouse BaF3-tel-cKit-N882K (stably expressing cKIT-N882K mutant activated kinase), mouse BaF3-tel-cKit-D816V (stably expressing cKIT-D816V mutant activated kinase), mouse BaF3-tel-cKit-T670I (stably expressing cKIT-T670I mutant activated kinase), mouse TPR-MET-BaF3 (stably expressing MET kinase), mouse tel-BaF3-EGFR (stably expressing EGFR kinase), mouse BaF3-FL-EGFR-L858R (stably expressing EGFR[L858R]mutant activated kinase), mouse tel-BaF3-BLK (stably expressing BLK kinase), mouse tel-JAK1-BaF3 (stably expressing JAK1 kinase) and the like were also used (see Table 2 for details). The above cell lines were all constructed by our laboratory according to the following method: the kinase region sequences of human FLT3/ITD, FLT3 D835Y, BMX, FLT3, FLT3[ITD+D835Y], FLT3[ITD+F691L], cKIT, cKIT [N882K], cKIT [D816V], cKIT [T670I], MET, EGFR, EGFR [L858R], BLK, JAK1, FLT3[K663Q], FLT3[D835V], FLT3[D835H], PDGFRa, PEGFRb, VEGFR2, JAK2, JAK3, ABL were amplified by PCR, and inserted into MSCV-Puro vectors with N-terminal TEL or TPR fragments (purchased from Clontech), respectively. The vectors were stably transfected into mouse BaF3 cells (purchased from ATCC) by means of retrovirus, and the growth factor IL-3 were removed, eventually obtaining cell lines that are transferred protein (FLT3/ITD, FLT3 D835Y, BMX, FLT3, FLT3[ITD D835Y], FLT3[ITD+F691L], cKIT, cKIT [N882K], cKIT [D816V], cKIT [T670I], MET, EGFR, EGFR [L858R], BLK, JAK1, FLT3[K663Q], FLT3[D835V], FLT3[D835H], PDGFRa, PEGFRb, VEGFR2, JAK2, JAK3, ABL)-dependent.
as §3

[6] = test system: BaF3-FLT3 [ITD]; test: Cell proliferation, Cell Titer-Glo, GI50; assay type: cell-based; settings: Mus musculus, Ba/F3 FLT3-ITD, 72 hours
Experimental: as §1, §4, §3

[7] = test system: BaF3-TEL-FLT3 [D835Y]; test: Cell proliferation, Cell Titer-Glo, GI50; assay type: cell-based; settings: Mus musculus, 72 hours
Experimental: as §1, §4, §3

[8] = test system: BaF3-TEL-FLT3; test: Cell proliferation, Cell Titer-Glo, GI50; assay type: cell-based; settings: Mus musculus; BaF3-TEL-FLT3, 72 hours
Experimental: as §1, §4, §3

[9] = test system: BaF3-TEL-FLT3 [K663Q]; test: Cell proliferation, Cell Titer-Glo, GI50; assay type: cell-based; settings: Mus musculus, 72 hours
Experimental: as §1, §4, §3

[10] = test system: BaF3-TEL-FLT3 [D835V]; test: Cell proliferation, Cell Titer-Glo, GI50; assay type: cell-based; settings: Mus musculus, 72 hours
Experimental: as §1, §4, §3

[11] = test system: BaF3-TEL-cKit [D816V]; test: Cell proliferation, Cell Titer-Glo, GI50; assay type: cell-based; settings: Mus musculus, 72 hours
Experimental: as §1, §4, §3

[12] = test system: BaF3-TEL-cKit [N882K]; test: Cell proliferation, Cell Titer-Glo, GI50; assay type: cell-based; settings: Mus musculus, 72 hours
Experimental: as §1, §4, §3

[13] = test system: BaF3-FLT3 [ITD + D835Y]; test: Cell proliferation, Cell Titer-Glo, GI50; assay type: cell-based; settings: Mus musculus, Ba/F3 FLT3-ITD, 72 hours
Experimental: as §1, §4, §3

[14] = test system: MOLM-13, MOLM-14 and MV-4-11 cell lines; test: Cell cycle distribution by flow cytometry (PI); assay type: cell-based, human; settings: MOLM-13, MOLM-14 and MV-4-11, 12 or 24 hours; Compound 1 0.01-0.1 μM, AC220 0.1 μM

CC(C)(C)c1cc(NC(=O)Nc2ccc(-n3nc(-c4ccc(N5CCOCC5)nc4)c4c(N)ncnc43)cc2)no1 [Compound 28, 1-(4-(4-amino-3-(6-morpholinopyridin-3-yl)-1H-pyrazolo[3,4-d]pyrimidin-1-yl)phenyl)-3-(5-(tert-butyl)isoxazol-3-yl)urea]
GI50 [1]: 1 nM | GI50 [2]: > 10000 nM | GI50 [3]: 2 nM | GI50 [4]: 6900 nM | GI50 [5]: 41 nM | GI50 [6]: 2 nM | GI50 [7]: 3 nM | GI50 [8]: 4 nM | GI50 [9]: > 10000 nM

CCN1CCN(Cc2ccc(-c3nn(-c4ccc(NC(=O)Nc5cc(C(C)(C)C)on5)cc4)c4ncnc(N)c34)cc2)CC1 [Compound 20, 1-(4-(4-amino-3-(4-((4-ethylpiperazin-1-yl)methyl)phenyl)-1H-pyrazolo[3,4-d]pyrimidin-1-yl)phenyl)-3-(5-(tert-butyl)isoxazol-3-yl)urea]
GI50 [1]: < 0.3 nM | GI50 [2]: 1700 nM | GI50 [3]: < 0.3 nM | GI50 [4]: 2500 nM | GI50 [5]: 40 nM | GI50 [6]: 0.9 nM | GI50 [7]: 240 nM | GI50 [10]: 8 nM | GI50 [11]: 1900 nM | GI50 [12]: 9 nM | GI50 [8]: 2 nM | GI50 [9]: 1600 nM | GI50 [13]: 240 nM

CC(C)(C)c1cc(NC(=O)Nc2ccc(-n3nc(-c4cccnc4)c4c(N)ncnc43)cc2)no1 [Compound 26, 1-(4-(4-amino-3-(pyridin-3-yl)-1H-pyrazolo[3,4-d]pyrimidin-1-yl)phenyl)-3-(5-(tert-butyl)isoxazol-3-yl)urea]
GI50 [1]: < 0.3 nM | GI50 [2]: > 10000 nM | GI50 [3]: 1 nM | GI50 [4]: > 10000 nM | GI50 [5]: 38 nM | GI50 [6]: 0.7 nM | GI50 [7]: 610 nM | GI50 [10]: 20 nM | GI50 [11]: 7600 nM | GI50 [12]: 29 nM | GI50 [8]: 1 nM | GI50 [9]: > 10000 nM | GI50 [13]: 610 nM

CC(C)(C)c1cc(NC(=O)Nc2ccc(-n3nc(-c4ccc(CN5CCOCC5)cc4)c4c(N)ncnc43)cc2)no1 [Compound 23, 1-(4-(4-amino-3-(4-(morpholinomethyl)phenyl)-1H-pyrazolo[3,4-d]pyrimidin-1-yl)phenyl)-3-(5-(tert-butyl)isoxazol-3-yl)urea]
GI50 [1]: < 0.3 nM | GI50 [2]: 4100 nM | GI50 [3]: < 0.3 nM | GI50 [4]: 5900 nM | GI50 [5]: 12 nM | GI50 [7]: 1 nM | GI50 [8]: < 0.3 nM | GI50 [9]: 5400 nM

Nc1ncnc2c1c(-c1ccc(OCCN3CCOCC3)cc1)nn2-c1ccc(NC(=O)Nc2ccc(Cl)c(C(F)(F)F)c2)cc1 [Compound 12, 1-(4-(4-amino-3-(4-(2-morpholinoethoxy)phenyl)-1H-pyrazolo[3,4-d]pyrimidin-1-yl)phenyl)-3-(4-chloro-3-(trifluoromethyl)phenyl)urea]
GI50 [1]: 3 nM | GI50 [2]: 2400 nM | GI50 [3]: 3 nM | GI50 [4]: 3000 nM | GI50 [5]: 140 nM | GI50 [6]: 3 nM | GI50 [7]: 1600 nM | GI50 [10]: 210 nM | GI50 [11]: 4000 nM | GI50 [12]: 96 nM | GI50 [8]: 12 nM | GI50 [9]: 5400 nM | GI50 [13]: 1600 nM

CC(C)(C)c1cc(NC(=O)Nc2ccc(-c3cn4c(n3)sc3cc(OCCN5CCOCC5)ccc34)cc2)no1 [AC220, reference compound]
cell cycle distribution [14]: similar

CC(C)(C)c1cc(NC(=O)Nc2ccc(-n3nc(-c4ccc(NS(C)(=O)=O)cc4)c4c(N)ncnc43)cc2)no1 [Compound 27]
GI50 [1]: 0.6 nM | GI50 [2]: > 10000 nM | GI50 [3]: 1 nM | GI50 [4]: > 10000 nM | GI50 [5]: 120 nM | GI50 [6]: 1 nM | GI50 [7]: 600 nM | GI50 [10]: 22 nM | GI50 [11]: > 10000 nM | GI50 [12]: 51 nM | GI50 [8]: 2 nM | GI50 [9]: > 10000 nM | GI50 [13]: 600 nM

CC(C)(C)c1ccc(NC(=O)Nc2ccc(-n3nc(-c4ccc(OCCN5CCOCC5)cc4)c4c(N)ncnc43)cc2)cc1 [Compound 10, 1-(4-(4-amino-3-(4-(2-morpholinoethoxy)phenyl)-1H-pyrazolo[3,4-d]pyrimidin-1-yl)phenyl)-3-(4-(tert-butyl)phenyl)urea]
GI50 [1]: 63 nM | GI50 [2]: 8500 nM | GI50 [3]: 81 nM | GI50 [4]: > 10000 nM | GI50 [5]: 990 nM | GI50 [6]: 24 nM | GI50 [7]: 4400 nM | GI50 [10]: 4500 nM | GI50 [11]: 4400 nM | GI50 [12]: 1100 nM | GI50 [8]: 190 nM | GI50 [9]: > 10000 nM | GI50 [13]: 4400 nM

CC(C)CNC(=O)Nc1ccc(-n2nc(-c3ccc(OCCN4CCOCC4)cc3)c3c(N)ncnc32)cc1 [Compound 4, 1-(4-(4-amino-3-(4-(2-morpholinoethoxy)phenyl)-1H-pyrazolo[3,4-d]pyrimidin-1-yl)phenyl)-3-isobutylurea]
GI50 [1]: 2800 nM | GI50 [2]: > 10000 nM | GI50 [3]: 2500 nM | GI50 [4]: > 10000 nM | GI50 [5]: > 10000 nM | GI50 [6]: 1100 nM | GI50 [7]: > 10000 nM | GI50 [10]: > 10000 nM | GI50 [11]: > 10000 nM | GI50 [12]: > 10000 nM | GI50 [8]: 5400 nM | GI50 [9]: > 10000 nM | GI50 [13]: > 10000 nM

CN(C)CCNC(=O)Nc1ccc(-n2nc(-c3ccc(OCCN4CCOCC4)cc3)c3c(N)ncnc32)cc1 [Compound 5, 1-(4-(4-amino-3-(4-(2-morpholinoethoxy)phenyl)-1H-pyrazolo[3,4-d]pyrimidin-1-yl)phenyl)-3-(2-(dimethylamino)ethyl)urea]
GI50 [1]: 82 nM | GI50 [2]: 9200 nM | GI50 [3]: 130 nM | GI50 [4]: 3800 nM | GI50 [5]: 3500 nM | GI50 [6]: 100 nM | GI50 [7]: 1300 nM | GI50 [10]: 1700 nM | GI50 [11]: 8300 nM | GI50 [12]: 3300 nM | GI50 [8]: 320 nM | GI50 [9]: 3700 nM | GI50 [13]: 1300 nM
